Assay results from patent US20040093331A1, “Computer program products, systems and methods for information discovery and relational analyses” (Board of Regents, University of Texas System, priority 2002, published 2004).

Tested on: cardiac hypertrophy
Experiment: Isoproterenol-induced cardiac hypertrophy in mice, osmotic micro-infusion pumps, echocardiography before and 7 days after start of infusion
Type: in vivo
Description: Validation of a relevant relationship between chlorpromazine and cardiac hypertrophy was performed through a series of laboratory studies in mice comparing the effects of a known beta-adrenergic agonist (also known to induce hypertrophy), isoproterenol, with isoproterenol plus chlorpromazine.
In brief, the study included 2 groups of 8 mice fitted with osmotic micro-infusion pumps. One group was given a continuous dose of 20 mg/kg/day isoproterenol and the other 20 mg/kg/day isopreterenol+10 mg/kg/day chlorpromazine. A smaller dose of chlorpromazine was chosen in preference to a larger one to minimize alterations in feeding behavior. Additionally, it reduced an adverse reaction between chlorpromazine and avertin (tribromoethanol), a anesthetic agent. Echocardiograms were taken before treatment and 7 days after initiation of infusions. Mice were sacrificed and their heart weighed.
FIG. 19 and TABLE 22 summarize the study findings. Generally, cardiac hypertrophy (as assessed by echocardiography) was reduced in mice treated with chlorpromazine plus isoproterenol. […] Echocardiography was use to estimate the change in weight or thickness of several different cardiac structures over the course of treatment. For FIG. 19, ten mice received isoproterenol (ISO) and eight received isoproterenol and chlorpromazine (CPZ+ISO), where LVW=left ventricle weight (CPZ+ISO 11±27%, ISO 51±43%, P<0.02); LVMI=left ventricular mass index (CPZ+ISO 11±28%, ISO 50±52%, P<0.04); PWT=posterior wall thickness (CPZ+ISO 16±16%, ISO 36±27%, P<0.05), IVSWT=intraventricular septum wall thickness (CPZ+ISO 19±18%, ISO 31±20%, P<0.12).

SMILES: C=CCN1CC[C@]23c4c5ccc(O)c4O[C@H]2C(=O)CC[C@@]3(O)[C@H]1C5 [Naloxone]
- effect of the drug in a mouse model of cardiohypertrophy (mouse model as described for chlorpromazine, values not given): validated in vivo

SMILES: CC(C)NCC(O)c1ccc(O)c(O)c1 (stereo not shown) [ISO, isoproterenol]
- LVMI=left ventricular mass index (FIG. 19, change over course of treatment, echocardiography, P<0.04): 50±52%
- PWT=posterior wall thickness (FIG. 19, change over course of treatment, echocardiography, P<0.05): 36±27%
- IVSWT=intraventricular septum wall thickness (FIG. 19, change over course of treatment, echocardiography, P<0.12): 31±20%
- LVW=left ventricle weight (FIG. 19, change over course of treatment, echocardiography, ten mice ISO, eight CPZ+ISO, P<0.02): 51±43%
- DI VS WT (Table 22, change in intraventricular septum wall thickness over treatment, echocardiography, 7 days infusion): 31% ± 21%
- LLVW (Table 22, change in left ventricle weight over treatment, echocardiography, 20 mg/kg/day isoproterenol with or without 10 mg/kg/day chlorpromazine, 7 days): 53% ± 45%
- OLVMI (Table 22, change in left ventricular mass index over treatment, echocardiography, 7 days infusion): 50% ± 55%
- OPWT (Table 22, change in posterior wall thickness over treatment, echocardiography, 7 days infusion): 36% ± 28%

SMILES: CN(C)CCCN1c2ccccc2Sc2ccc(Cl)cc21 [chlorpromazine]
- cardiac hypertrophy (as assessed by echocardiography) (10 mg/kg/day chlorpromazine + 20 mg/kg/day isoproterenol versus isoproterenol alone, mice): protected the mice against the development of cardiac hypertrophy
